Test results as given in patent US9468669B2, “Methods to treat dysregulated blood glucose disorders” (REGENTS OF THE UNIVERSITY OF MINNESOTA, priority 2013, dated 2016).

Tests used:
[1] = system: human islets; assay: Human islet viability (acridine orange / propidium iodide staining); type: cell-based; settings: for islet viability: 100 uM
Procedure: (§1) Living islets were isolated from the pancreas of a consenting organ donor via enzymatic digestion and isopycnic density gradient purification as previously described (Balamurugan, A N., et al., (2014) The Islets of Langerhans, 2nd Edition, 1-25). This isolation was performed as a standard procedure by an experienced team at the Schulze Diabetes Institute of the University of Minnesota under GMP conditions. A portion of the total number of isolated islets were granted for these experiments after quality control testing and quantification. Islets were maintained in culture in supplemented Prodo media with a 5.5 mM glucose concentration in a T-flask at 37° C., 5% CO2. Half-volume media changes were performed every 3′^d day.
After conditional incubations (described below), islets were placed in standard media for 2-8 hrs before viability assessment. The viability of islets was assessed by double staining an aliquot of ˜25 islets with acridine orange (stains living cells) and propidium iodide (stains necrotic or apoptotic cells) (Bank, H. L., (1988) In Vitro Cell Dev Biol 24, 266-73). Each islet in the sample was evaluated under a fluorescent microscope and assigned a value for the % of live cells present and those numbers averaged for that sample. 3× samples per condition were assayed each day for 3 consecutive days and on one day in a follow-up experiment 1 week later. Prior to staining, aliquots were incubated for 60 minutes (FIG. 12, n=2 days) or 90 minutes (FIG. 13, n=2 days) in each solution type used in the GSIR incubations in addition to 100 uM concentrations of D-serine, NMDA or D-serine+NMDA alone (i.e. in 0 glucose). […] On the 3rd day and in a subsequent follow-up experiment, islets were incubated for 90 minutes in the same solutions. In this case, viability was decreased only under those conditions with both the maximum glucose concentration (28 mM) and the addition of NMDA and/or D-serine with the most dramatic loss of viable islet cells (down to 81.1±1.1%) observed in the 28 mM glucose+100 uM NMDA+100 uM D-serine condition (FIG. 13).

[2] = system: human islets; assay: Glucose stimulated insulin release (GSIR); type: cell-based; settings: 100 uM, glucose series
Procedure: as §1, with “Half-volume media changes were performed every 3′^d day.” left out
After washing to remove culture media, approximate aliquots of 30 islet equivalents (IEQ, islet numbers normalized to an average size of 150 microns) were added to cell strainers immersed in 1.0 mL of 0-glucose solution. […] All well contents, both time 0 and post-stimulation samples, were stored at −80° C. until they could be assessed for insulin content via sandwich ELISA from a standard commercial mouse insulin ELISA kit. Insulin content, post-stimulation concentration minus the time 0 concentration, was normalized to the actual IEQ of each well, which was determined by Pico-green DNA assessment (Papas, K. K., et al., (2007), Am J Transplant 7, 707-13) of cell strainer contents recovered at the end of the final incubation. […]

[3] = Plasma D-serine after acute i.p. administration (capillary electrophoresis); type: in vivo, mice; settings: 2.7 g/kg i.p., 35 and 55 minutes after injection; ethanol 3 g/kg i.p. 15 min after D-serine
Procedure: The data from FIG. 3 serves as an example of a concentration reference value subject to the time frame and administration technique of the acute hypoglycemia experiments described in FIG. 1. A 20 uL blood sample was collected from the facial vein of mice prior to any treatment (time 0) and 20 and 40 minute intervals after an i.p. injection of ethanol (3 g/kg). A pre-treatment injection of saline (n=9) or D-serine (2.7 g/kg, i.p., n=9) was administered 15 minutes before ethanol such that the reported values also correspond to time 35 and 55 minutes after the pre-injection. These blood samples were assayed for D-serine using capillary electrophoresis, as described in the publication (Lockridge, 2012). Basal levels of plasma D-serine were ˜20 uM with post-injection values rising into the […].

[4] = Plasma D-serine during chronic, sustained drinking (capillary electrophoresis); type: in vivo, mice; settings: 12.6 mg/mL drinking solution
Excerpt: The data from FIG. 4 were generated from an unpublished study of the impacts of D-serine on ethanol drinking. […] Blood was collected from the facial vein and assayed via capillary electrophoresis as described above after mice (n=2-4 per condition as shown in the x-axis) had been presented with a choice of water vs. D-serine (or ethanol) drinking solution for 2 weeks and then 2 weeks of exclusively drinking treated solution according to their indicated treatment category.

[5] = system: blood glucose; assay: Chronic D-serine drinking, fasted blood glucose, body weight and consumption; type: in vivo, mice of the C57 strain
Procedure: Mice were fasted for 4-6 hours. The tails were wiped with ethanol and allowed to dry. For a first time test, the tip of the tail was removed with a scissors. For subsequent tests, a needle was used to puncture the tail vein. The first drop of blood was wiped away and then the second drop was placed on a glucometer test strip. A second test was administered immediately and most scores were an average of the two readings. If there was more than a 100 unit discrepancy between the two readings, a third reading was taken and the reported value was an average of the three. Eight adult male mice of the C57 strain were tested in a chronic administration model. Mice were housed 2 per cage, with each cage outfitted with 2 special drinking tubes (50 mL conical+stopper with sipper tube) to minimize the impact of any problems with a single tube. Two cages of mice drank tap water and two cages of mice drank a D-serine solution (12.6 mg/ml in tap water), with solutions replaced every other day. Every other day, the food and drinking bottles were weighed to determine cage-wide consumptive behaviors and the mice were individually weighed. At specified intervals, mice were also tested for core body temperature by rectal probe and for 4-hours fasted blood glucose. All mice started with a week of water drinking. […] After one week, two cages (4 mice) were switched to D-serine solution. […] After this measure, all mice were again switched back to water. […] Both acute weight loss and increased drinking are prominent symptoms of the onset of diabetes.

[6] = system: human islets; assay: Sustained high concentration D-serine on human islet survival (1 week culture); type: cell-based; settings: 100 uM NMDA and 500 uM D-serine
Procedure: as §1
After conditional incubations (described below), islets were placed in standard media for 2-8 hrs before viability assessment. The viability of islets was assessed by double staining an aliquot of ˜25 islets with acridine orange (stains living cells) and propidium iodide (stains necrotic or apoptotic cells) (Bank, H. L., (1988) In Vitro Cell Dev Biol 24, 266-73). Each islet in the sample was evaluated under a fluorescent microscope and assigned a value for the % of live cells present and those numbers averaged for that sample. 3× samples per condition were assayed each day for 3 consecutive days and on one day in a follow-up experiment 1 week later. […]

[7] = system: blood glucose; assay: Acute D-serine injection, fasted blood glucose by glucometer; type: in vivo, mice of the ddY strain; settings: 2.7 g/kg i.p., 6 h fasted
Procedure: Mice were fasted for 4-6 hours. The tails were wiped with ethanol and allowed to dry. For a first time test, the tip of the tail was removed with a scissors. For subsequent tests, a needle was used to puncture the tail vein. The first drop of blood was wiped away and then the second drop was placed on a glucometer test strip. A second test was administered immediately and most scores were an average of the two readings. If there was more than a 100 unit discrepancy between the two readings, a third reading was taken and the reported value was an average of the three.
Four adult male mice of the ddY strain were fasted for 6 hours before testing. A blood glucose reading from each mouse was determined at the start (time 0). The mice were weighed and the average weight was used with an injection volume of 0.3 mL to calculate the concentration of D-serine to dissolve into saline. The dose, 2.7 g/kg, was picked based on previously published behavior studies in which the intraperitoneal dose was the most reliable in inducing a mouse behavior response during pre-pulse startle inhibition (Kanahara, N., et al., (2008), Psychopharmacology, 198, 363-374) and acute ethanol sedation (Lockridge, A., et al., (2012), Alcohol, 46:389-400). After time 0 testing, each mouse received either D-serine or saline (alternating by cage) at 5 minute intervals. Blood glucose readings were taken at 15, 30, 60 and 120 minutes after each mouse's initial injection. The data presented is the average blood glucose (mg/dL), determined by glucometer as previously described (FIG. 1). Each data point is the average of the two mice with the same treatment condition, while the standard error bars indicate the degree of individual variability between subjects. The saline injected control mice (black) maintained a steady glucose level (70-80% of baseline) throughout the testing period.

[8] = Core body temperature by rectal probe during chronic D-serine drinking; type: in vivo, mice; settings: throughout the chronic D-serine drinking experiment
Procedure: Eight adult male mice of the C57 strain were tested in a chronic administration model. Mice were housed 2 per cage, with each cage outfitted with 2 special drinking tubes (50 mL conical+stopper with sipper tube) to minimize the impact of any problems with a single tube. Two cages of mice drank tap water and two cages of mice drank a D-serine solution (12.6 mg/ml in tap water), with solutions replaced every other day. Every other day, the food and drinking bottles were weighed to determine cage-wide consumptive behaviors and the mice were individually weighed. At specified intervals, mice were also tested for core body temperature by rectal probe and for 4-hours fasted blood glucose. All mice started with a week of water drinking. […] After one week, two cages (4 mice) were switched to D-serine solution. […] After this measure, all mice were again switched back to water. […] Both acute weight loss and increased drinking are prominent symptoms of the onset of diabetes.
The hypothalamus is known to regulate metabolism through its influence on circadian rhythm, hunger, thirst, body temperature and glucose utilization among others. […] Core body temperature, determined by rectal thermometer, was stable throughout the chronic D-serine drinking experiment (FIG. 8A) and between wildtype and DAO mutant mice (FIG. 8B).

[9] = 12.6 mg/ml in drinking water, first week of treatment

| SMILES | islet viability ([1]; 60 minutes incubation, all GSIR solution types and 0 glucose) [%] | islet viability (viable islet cells) ([1]; 90 minutes incubation, 28 mM glucose, 100 uM supplement) | effect on insulin secretion, supplement alone [2] | islet viability ([1]; human, 60 min) [%] | plasma D-serine, post-injection [3] [mM] | plasma level relative to human patients undergoing D-serine oral therapy ([4]; versus clinical trials (Emilov 2013)) | concentration at 4 weeks ([4]; mouse, plasma, oral, 2 weeks choice then 2 weeks exclusive drinking, read-out: basal D-serine plasma level) [µM] | solution drinking ([5]; 12.6 mg/ml in drinking water) | blood sugar ([5]; 12.6 mg/ml in drinking water, 16 days of drinking, 4-hours fasted) [mg/dL] | blood sugar ([5]; 12.6 mg/ml in drinking water, after 7 days of drinking, 4-hours fasted) [mg/dL] | body weight [5, 9] | eating [5, 9] | blood glucose ([5]; 12.6 mg/ml in drinking water, two days after the switch, 4-hours fasted) | blood glucose after switch back to water ([5]; after a week of water drinking following 16 days of D-serine) | average viability, % viable cells per islet [6] [%] | islets recovered, average pool IEQ ([6]; Pico-green DNA assay) [IEQ] | blood sugar ([7]; 15 and 30 minutes after injection) | blood sugar, % of baseline ([7]; 60 minutes after injection) | blood sugar, % of baseline ([7]; 120 minutes after injection) | core body temperature [8] |
| --- | --- | --- | --- | --- | --- | --- | --- | --- | --- | --- | --- | --- | --- | --- | --- | --- | --- | --- | --- | --- |
| CN[C@H](CC(=O)O)C(=O)O [NMDA, N-methyl-D-aspartate] | ~100 | decreased | no effect on 2 out of 3 days tested | – | – | – | – | – | – | – | – | – | – | – | – | – | – | – | – | – |
| N[C@H](CO)C(=O)O [D-serine] | – | – | no effect | ~100 | ~12 | 2-3 times higher | 400 to 600 | increased | 170 ± 9 | 149 ± 12 | weight loss | reduced eating | still at baseline levels | recovered back to baseline glucose levels | 84±2.4 | 1137±172 | stable | 52 % of baseline | 36 % of baseline | stable |
